Source: ChEMBL document CHEMBL4007467, “Effects of 6-paradol, an unsaturated ketone from gingers, on cytochrome P450-mediated drug metabolism” (Bioorg Med Chem Lett, 2017)

Columns and labels:
Type in all cases: ADME
CYP2B6 = target: T1, CYP2B6 (Homo sapiens, UniProt P20813); assay: Inhibition of CYP2B6 in human liver microsomes assessed as enzyme-mediated metabolite formation at 0.1 uM using bupropion as substrate preincubated for 20 mins followed by substrate addition measured after 30 mins in presence of NADPH by LC-MS/MS analysis relative to control; parameters: scale not given: the % may be the effect or the level left; details: probe bupropion, read-out: Activity
T1 sequence (P20813 whole entry): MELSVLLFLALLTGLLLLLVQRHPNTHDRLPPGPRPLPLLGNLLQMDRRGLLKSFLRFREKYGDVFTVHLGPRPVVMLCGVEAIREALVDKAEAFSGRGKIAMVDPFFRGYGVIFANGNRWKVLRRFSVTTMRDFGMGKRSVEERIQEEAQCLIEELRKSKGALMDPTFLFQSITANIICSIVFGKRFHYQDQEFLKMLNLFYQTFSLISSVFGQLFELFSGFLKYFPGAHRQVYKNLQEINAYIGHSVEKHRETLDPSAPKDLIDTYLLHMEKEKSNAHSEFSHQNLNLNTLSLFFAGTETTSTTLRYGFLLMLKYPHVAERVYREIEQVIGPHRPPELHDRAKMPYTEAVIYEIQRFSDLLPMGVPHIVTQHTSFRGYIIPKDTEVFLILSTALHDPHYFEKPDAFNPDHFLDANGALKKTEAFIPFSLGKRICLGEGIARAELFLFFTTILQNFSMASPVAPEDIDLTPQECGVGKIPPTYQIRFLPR

CYP2D6 [1] = target: T2, CYP2D6 (Homo sapiens, UniProt P10635); assay: Inhibition of CYP2D6 in human liver microsomes assessed as enzyme-mediated metabolite formation at 30 uM using dextromethorphan as substrate incubated for 5 mins followed by NADPH addition measured after 30 mins by LC-MS/MS analysis relative to control; parameters: scale not given: the % may be the effect or the level left; details: probe dextromethorphan, read-out: Activity
T2 sequence (P10635 whole entry): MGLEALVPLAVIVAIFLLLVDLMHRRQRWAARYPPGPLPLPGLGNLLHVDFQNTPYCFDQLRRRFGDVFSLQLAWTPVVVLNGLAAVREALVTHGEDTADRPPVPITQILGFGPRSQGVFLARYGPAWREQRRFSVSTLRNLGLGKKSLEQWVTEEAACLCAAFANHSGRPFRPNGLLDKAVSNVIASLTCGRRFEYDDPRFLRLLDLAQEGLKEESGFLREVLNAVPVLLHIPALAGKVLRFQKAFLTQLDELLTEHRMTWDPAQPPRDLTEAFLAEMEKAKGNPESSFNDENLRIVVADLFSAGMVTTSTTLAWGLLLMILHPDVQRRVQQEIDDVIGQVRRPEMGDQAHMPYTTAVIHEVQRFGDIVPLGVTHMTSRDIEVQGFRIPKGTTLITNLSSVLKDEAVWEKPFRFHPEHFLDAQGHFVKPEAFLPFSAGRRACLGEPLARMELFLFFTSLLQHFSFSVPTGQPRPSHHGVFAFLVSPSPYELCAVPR

CYP3A4 [2] = target: T3, CYP3A4 (Homo sapiens, UniProt P08684); assay: Inhibition of CYP3A4 in human liver microsomes assessed as enzyme-mediated metabolite formation at 1 uM using midazolam as substrate incubated for 5 mins followed by NADPH addition measured after 30 mins by LC-MS/MS analysis relative to control; parameters: scale not given: the % may be the effect or the level left; details: probe midazolam, read-out: Activity
T3 sequence (P08684 whole entry): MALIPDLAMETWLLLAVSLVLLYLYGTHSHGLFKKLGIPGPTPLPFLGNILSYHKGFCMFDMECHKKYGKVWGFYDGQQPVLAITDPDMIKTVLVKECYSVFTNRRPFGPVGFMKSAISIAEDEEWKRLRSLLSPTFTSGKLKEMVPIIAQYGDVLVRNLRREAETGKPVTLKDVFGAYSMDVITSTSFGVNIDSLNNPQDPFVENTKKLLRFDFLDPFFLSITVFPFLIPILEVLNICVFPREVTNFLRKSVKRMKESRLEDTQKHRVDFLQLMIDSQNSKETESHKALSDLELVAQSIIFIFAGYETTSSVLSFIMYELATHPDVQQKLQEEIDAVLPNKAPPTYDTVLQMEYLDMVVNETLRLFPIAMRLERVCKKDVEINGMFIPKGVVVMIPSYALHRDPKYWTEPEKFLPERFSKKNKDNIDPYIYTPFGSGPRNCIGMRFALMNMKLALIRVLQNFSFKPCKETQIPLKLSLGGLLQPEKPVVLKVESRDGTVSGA

CYP2C8 [3] = target: T4, CYP2C8 (Homo sapiens, UniProt P10632); assay: Inhibition of CYP2C8 in human liver microsomes assessed as enzyme-mediated metabolite formation at 3 uM using paclitaxel as substrate preincubated for 20 mins followed by substrate addition measured after 30 mins in presence of NADPH by LC-MS/MS analysis relative to control; parameters: scale not given: the % may be the effect or the level left; details: probe paclitaxel, read-out: Activity
T4 sequence (P10632 whole entry): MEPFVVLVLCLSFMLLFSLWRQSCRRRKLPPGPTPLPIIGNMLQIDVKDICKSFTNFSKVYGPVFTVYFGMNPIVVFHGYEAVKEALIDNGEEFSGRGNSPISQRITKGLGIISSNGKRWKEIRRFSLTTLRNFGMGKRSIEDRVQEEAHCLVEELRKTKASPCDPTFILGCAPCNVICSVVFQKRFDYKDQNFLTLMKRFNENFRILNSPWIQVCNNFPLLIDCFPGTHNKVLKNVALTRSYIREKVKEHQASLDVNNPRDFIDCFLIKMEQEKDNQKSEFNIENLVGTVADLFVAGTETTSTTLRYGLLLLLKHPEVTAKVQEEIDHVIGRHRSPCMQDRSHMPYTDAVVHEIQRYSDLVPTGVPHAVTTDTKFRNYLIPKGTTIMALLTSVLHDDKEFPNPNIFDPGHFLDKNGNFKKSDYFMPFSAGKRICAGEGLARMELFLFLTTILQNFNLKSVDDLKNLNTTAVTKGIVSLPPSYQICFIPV

Cytochrome P450 2A6 = target: T5, Cytochrome P450 2A6 (Homo sapiens, UniProt P11509); assay: Inhibition of CYP2A6 in human liver microsomes assessed as enzyme-mediated metabolite formation using coumarin as substrate incubated for 5 mins followed by NADPH addition measured after 30 mins by LC-MS/MS analysis
T5 sequence (P11509 whole entry): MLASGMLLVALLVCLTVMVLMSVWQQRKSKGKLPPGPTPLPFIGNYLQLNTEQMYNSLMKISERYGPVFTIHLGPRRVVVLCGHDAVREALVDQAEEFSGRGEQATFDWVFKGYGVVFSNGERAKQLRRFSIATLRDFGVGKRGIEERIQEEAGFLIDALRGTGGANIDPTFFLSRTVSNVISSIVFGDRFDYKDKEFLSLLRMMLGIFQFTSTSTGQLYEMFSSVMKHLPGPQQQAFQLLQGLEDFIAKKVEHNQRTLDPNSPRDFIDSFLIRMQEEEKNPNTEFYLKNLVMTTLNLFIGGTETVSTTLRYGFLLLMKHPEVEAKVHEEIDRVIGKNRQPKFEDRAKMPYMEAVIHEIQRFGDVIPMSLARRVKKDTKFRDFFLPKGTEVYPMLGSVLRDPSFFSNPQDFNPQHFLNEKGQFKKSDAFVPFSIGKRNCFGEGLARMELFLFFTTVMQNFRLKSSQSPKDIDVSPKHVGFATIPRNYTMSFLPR

CYP2C8 [4] = target: T4, CYP2C8; assay: Inhibition of CYP2C8 in human liver microsomes assessed as enzyme-mediated metabolite formation at 10 uM using paclitaxel as substrate incubated for 5 mins followed by NADPH addition measured after 30 mins by LC-MS/MS analysis relative to control; parameters: scale not given: the % may be the effect or the level left; details: probe paclitaxel, read-out: Activity
CYP2D6 [5] = target: T2, CYP2D6; assay: Inhibition of CYP2D6 in human liver microsomes assessed as enzyme-mediated metabolite formation at 0.3 uM using dextromethorphan as substrate preincubated for 20 mins followed by substrate addition measured after 30 mins in presence of NADPH by LC-MS/MS analysis relative to control; parameters: scale not given: the % may be the effect or the level left; details: probe dextromethorphan, read-out: Activity
CYP3A4 [6] = target: T3, CYP3A4; assay: Inhibition of CYP3A4 in human liver microsomes assessed as enzyme-mediated metabolite formation at 30 uM using midazolam as substrate incubated for 5 mins followed by NADPH addition measured after 30 mins by LC-MS/MS analysis relative to control; parameters: scale not given: the % may be the effect or the level left; details: probe midazolam, read-out: Activity
CYP3A4 [7] = target: T3, CYP3A4; assay: Inhibition of CYP3A4 in human liver microsomes assessed as enzyme-mediated metabolite formation at 1 uM using midazolam as substrate preincubated for 20 mins followed by substrate addition measured after 30 mins in presence of NADPH by LC-MS/MS analysis relative to control; parameters: scale not given: the % may be the effect or the level left; details: probe midazolam, read-out: Activity

- activity at 0.5 h, 0.1 µM (CYP2B6): 88.5%
- activity at 0.5 h, 30 µM (CYP2D6 [1]): 53.8%
- activity at 0.5 h, 1 µM (CYP3A4 [2]): 88.5%
- activity at 0.5 h, 3 µM (CYP2C8 [3]): 56.6%
- IC50 (Cytochrome P450 2A6): > 30 µM
- activity at 0.5 h, 10 µM (CYP2C8 [4]): 45.5%
- activity at 0.5 h, 0.3 µM (CYP2D6 [5]): 87%
- activity at 0.5 h, 30 µM (CYP3A4 [6]): 72%
- activity at 0.5 h, 1 µM (CYP3A4 [7]): 91.5%
Compound: CCCCCCCC(=O)CCc1ccc(O)c(OC)c1
